Series [1] has as its system C3H/10T½ cells. Description: C3H/10T½ serum deprivation anti-apoptotic activity assay. The format is cell-based. As to conditions: for Maximum effect relative to 18:1 LPA: LPA alone, 24 h serum deprivation, 18:1 LPA = 100%; for activity compared with lysophosphatidic acid: summary of Table 3. From the text:
In order to determine the apoptotic activity of the claimed invention, the following method of analysis was used. The-cell assay is described in detail in U.S. Pat. Nos. 5,637,486, 5,620,888, and 5,681,703, and Tomei et al. (1993) Proc Natl. Acad. Sci. 90:853-857. Briefly, mouse fibroblast C3H/10T½ cells (clone 8) were obtained from ATCC (Rockville, Md.) and were maintained in exponential growth phase in which the cell cycle is randomly distributed and no cells are arrested in G0, and in quiescence. Exponential growth phase was assured by seeding at 2000 cells per 1 ml (5 ml for a 60 mm culture plate) five days prior to the beginning of the experiment. Assays were performed on cells only up to passage 15. At T=0, cultures were transferred to serum-free medium, as an apoptosis stimulus, and seed extracts were added. Controls included 10-7 and 5×10^-8 M 12-O-tetradecanoyl phorbol-13-acetate (TPA) to ensure the responsiveness of the cell culture. The samples were added to serum free medium and sterile filtered prior to addition to the cultures. Assays were performed in triplicate or quadruplicate. Analyses of the cell responses were made between 18 and 28 hours of serum deprivation. Two assays were performed on each cell culture plate consisting of differential cell counts.
1. All non-adherent or loosely adherent cells were removed from the culture dish and counted by appropriate techniques, typically counting by electronic particle counting instrument. These are the apoptotic cells, the serum deprived released cells (SDR), released by the action of cultivation in serum-free medium. Approximately 95% of these released cells are apoptotic as shown by both ultrastructure analysis and DNA fragmentation analysis.
2. The remaining adherent cells (ADH) were exposed to a buffered, typically pH 7.3, balanced salt solution such as Hanks Balanced Salt Solution without calcium and magnesium salts containing 0.05% trypsin and 0.53 mM ethylene diaminetetraacetic acid (EDTA). Each culture was incubated at either room temperature or 37° C. on a rocking platform to ensure uniform distribution of the trypsin reagent over the culture surface. After a standardized period of time, typically 10 minutes, the released cells were removed from each culture dish and measured by the same means as described above, typically electronic particle counting. This ADH cell count is comprised of both trypsin resistant and trypsin sensitive cells as described in U.S. Pat. Nos. 5,637,486, 5,620,888, and 5,681,703.
Anti-apoptotic activity is expressed in the following examples as the calculated concentration of material (μg/ml of media) required to save 50% of the cells released on serum free treatment.
The ability of 18:1-LPA and other LPAs to protect serum-starved cells from apoptotic death was measured using the C3H/10T½ cell assay, performed as described in Example 2. The effect of various compounds on the ability of lysophosphatidic acid to protect serum-starved cells from apoptotic death was also measured. Log phase cells were seeded in 60 mm Petri dishes at 175-350 cells per cm2 and maintained in Basal Medium Eagle (BME) supplemented with 10% Heat Inactivated Fetal Bovine Serum (HIFBS). On day 3 the cells were given fresh media. Treatment began on day 5 when the media containing serum was removed and replaced with the LPA mixture to be tested. After 24 hours of treatment, day 6, serum deprived released (SDR) cells (the apoptotic cell population) and adherent (ADH) cells were separated and counted using an electronic cell counter Coulter Corporation, Hialea, Fla.). SDR cells were counted with the lower threshold setting at 6.3 μm and were defined as the apoptotic cells dying in response to cultivation in serum free media. Approximately 95% of the SDR cells were confirmed to be apoptotic as previously shown by size, ultrastructure and DNA fragmentation analysis. […]

Series [2] relates to C3H/10T½ cells. Description: Effect of proteins on anti-apoptotic activity of soy LPA, C3H/10T½ cell assay. The format is cell-based. As to conditions: for Protein + 10 μg/mL Soy LPA, percent cells saved from apoptosis: 1:10 soy-LPA to protein (weight:weight), 24 h serum deprivation; for enhancement of the anti-apoptotic activity of LPA: protein added together with soy-LPA. Here is the method:
Soy derived LPA (soy-LPA) (Avanti® Polar Lipids, Inc., Alabaster, Ala.) was stored in an organic solution and was dried immediately prior to assay using a Speed Vac (Savant Instruments, Hicksville, N.Y.). Tested proteins were resuspended at 10 mg/mL in a bicarbonate buffered saline/EDTA solution (50 mM NH4HCO3, 104 mM NaCl, 250 μM EDTA) prior to being added to dried soy-LPA at a 1:10 soy-LPA to protein (weight:weight) ratio. The mixture was then sonicated for 5 minutes using a high power 80 Watt sonication bath (Laboratory Supplies Co., Hicksville, N.Y.). Following sonication, concentrated LPA/protein mixtures were left standing for 15 minutes at room temperature prior to dilution in cell culture assay media.
The effect of various proteins on the ability of LPA to protect serum-starved cells from apoptotic death was measured using the C3H/10T½ cell assay, performed as described in Example 2, above. Log phase cells were seeded in 60 mm Petri dishes at 175-350 cells per cm^2 and maintained in Basal Medium Eagle (BME) supplemented with 10% fetal calf serum (Hyclone, Logan, Utah). At time zero, serum containing media was replaced with sterile filtered BME containing the LPA/protein mixture to be tested. After 24 hours of treatment, serum deprived release (SDR) cells (the apoptotic cell population) and adherent (ADH) cells were separated and counted using an electronic cell counter (Coulter Corporation, Hialea, Fla.). SDR cells were counted with the lower threshold setting at 6.3 μm and were defined as the apoptotic cells dying in response to cultivation in serum-free-media. Approximately 95% of the SDR cells are confirmed to be apoptotic as previously shown by size, ultrastructure and DNA fragmentation analysis. Adherent cells were removed by treatment with a Hanks' balanced salt solution containing 0.05% trypsin and 0.53 mM EDTA and were counted with the lower threshold setting at 11.01 μm. All samples were tested in triplicate and serum-deprived controls (BME only) were assayed at both the beginning and end of each experiment.
The effects of various proteins alone or in combination with LPA are expressed as percent cells saved from apoptosis. When C3H10T½ cells were treated with 10 μg/mL soy LPA without protein, 8.0% of the cells were saved. The degree of protection from apoptosis afforded by protein alone, added to the medium at a concentration of 0.1% (wt/vol.), varied from 0.9% to 27.7% of cells saved from apoptosis. An unusually high percentage of cells were protected from serum-starvation-induced apoptosis by casein. This value may be artificially high, as casein preparations have been known to contain growth factors, including insulin-like growth factors (IGF) IGF1 and IGF2. IGF2 is a mitogen that can mask the serum deprivation-induced apoptotic response in these cells.

Series [3] in a line: Electrophoresis radiobinding assay on native polyacrylamide gel. As to conditions: 1 nM labeled 18:1-LPA/45 μg protein, 37° C., 60 minutes. In kind it is binding. The protocol:
Electrophoresis radiobinding assay. Proteins were analyzed on native polyacrylamide gels following incubation with ^3H-labeled 18:1-LPA. ^3H-labeled lysophosphatidic acid (1-oleyl) (DuPont NEN Products, Boston, Mass.) was added to tested proteins at 1 nM labeled 18:1-LPA/45 μg protein. Mixtures were incubated in a bicarbonate buffered saline/EDTA solution at 37° C. for 60 minutes. Incubated samples were mixed with native gel sample buffer (312 mM Tris pH 6.8, 50% glycerol, 0.05% bromophenol blue) and loaded entirely onto an 8% discontinuous native polyacrylamide gel. Following electrophoresis, proteins were fixed into the gels using an aqueous solution consisting of glacial acetic acid, 10% (vol/vol) and methanol 30% (vol./vol.) solution. Fixed gels were then incubated for 60 minutes in autoradiography enhancer (EN^3HANCE, DuPont NEN Products, Boston, Mass.), and dried onto 3M chromatography paper (Whatman, Clifton, N.J.) and exposed to autoradiography film (X-Omat, Kodak, Rochester, N.Y.) for 72 hours at −80° C.

Series [4] in a line: Size shift assay on Superdex S75 column. In kind it is binding. The conditions noted are these: soy LPA with 0.5 μCi ^3H-labeled 18:1-LPA, with test protein. The protocol:
Size shift assay. Size analysis of LPA both with and without protein was performed using a Superdex® S75 column (Pharmacia Biotech, Uppsala, Sweden). Soy LPA was combined in a chloroform solution with 0.5 μCi ^3H-labeled 18:1-LPA (DuPont NEN Products, Boston, Mass.), dried under vacuum and resuspended by sonication in a buffered solution (50 mM ammonium bicarbonate, 154 mM sodium chloride, pH 8.0) in the presence or absence of test protein. The ammonium bicarbonate/sodium chloride solution was used as the mobile phase at a flow rate of 1 ml/min. One-minute fractions were collected for 30 minutes following sample injection. Fractions were counted in scintillant solution using a liquid scintillation counter (Beckman Instruments, Irvine, Calif.). Calibration was performed using a standard solution containing purified proteins (BioRad, Hercules, Calif.).

[5] abbreviates: compounds exhibiting toxicity, Table 3 column Concentration for Max Effect.

For `CCCCCCCCCCCCCCOCC(O)COP(=O)(OC)OC` (racemic) [Compound 3, Dimethyl 3-O-tetradecyl-rac-glycero-1-phosphate], the “Maximum effect relative to 18:1 LPA” value with C3H/10T½ cells [1] was “Toxic”. For the same molecule, the “lowest concentration at which cytotoxic effects were observed” value (“lowest concentration” below) with C3H/10T½ cells [1] (setting [5]) is 30 µM. Take `CCCCCCCCCCCCCCOCC(O)COP(=O)(O)O` (racemic) [Compound 4, 3-O-Tetradecyl-rac-glycero-1-phosphate]: in the series on C3H/10T½ cells [1], the “Maximum effect relative to 18:1 LPA” value is “Toxic”. The “lowest concentration” value in the series with C3H/10T½ cells [1] (mouse, 24 h) was found to be 10 µM. On to `CCCCCCCC/C=C\CCCCCCCC(=O)OCC(COP(O)(O)=S)OC` (racemic) [Compound 48, 3-O-Oleoyl-2-O-methyl-rac-glycero-1-thiophosphate], for which the “activity compared with lysophosphatidic acid” value with C3H/10T½ cells [1] was “significantly higher than lysophosphatidic acid”. The same measure, in the same setting: as for `CCCCCCCC/C=C\CCCCCCCCOCC(COP(O)(O)=S)OC` (racemic) [Compound 66, 3-O-Oleyl-2-O-methyl-rac-glycero-1-thiophosphate], the entry is “significantly higher than lysophosphatidic acid”; as for `CCCCCCCC/C=C\CCCCCCCCOC(=O)C(COP(O)(O)=S)OC` (racemic) [Compound 78, Oleyl 1-thiophosphoryl-2-O-methyl-rac-glycerate], “significantly higher than lysophosphatidic acid”. With `CCCCCCCCCCCCCCOCC1CO1` (stereo not shown) [Compound 8, 1-O-Tetradecyl-glycidol], the “Maximum effect relative to 18:1 LPA” value in the series with C3H/10T½ cells [1] is recorded as “Toxic”. The “lowest concentration” value in the series on C3H/10T½ cells [1] (setting [5]) turned out to be 30 µM.

As for `CCCCCCCC/C=C\CCCCCCCC(=O)NCCOP(=O)(OC)OC` [Compound 59, Dimethyl 2-amino-2-N-oleoyl-ethyl phosphate], the “Maximum effect relative to 18:1 LPA” value in the series with C3H/10T½ cells [1] is reported as “Toxic”. Also, the “lowest concentration” value with C3H/10T½ cells [1] (setting [5]) is 30 µM.

Consider Acyl Carrier Protein: source E. coli, for which the “Protein + 10 μg/mL Soy LPA, percent cells saved from apoptosis” value in the series on C3H/10T½ cells [2] is on record as 36.2%. In addition, the “Detectable Acrylamide Gel ^3H LPA Binding (+/−)” value in series [3] is given as “did not yield detectable bands”. As for Casein, the “Protein + 10 μg/mL Soy LPA, percent cells saved from apoptosis” value in the series on C3H/10T½ cells [2] is reported as 84.3%. As to Cytochrome C: source bovine heart, the “Protein + 10 μg/mL Soy LPA, percent cells saved from apoptosis” value in the series with C3H/10T½ cells [2] was determined as 54.6%. Also, in series [4], the “3H-LPA Size Shift Analysis (+/−)” value is “LPA does not bind to this protein”. On to “Dimethyl 3-amino-3-N-oleoyl-propyl phosphate [Compound 53]”, for which the “Maximum effect relative to 18:1 LPA” value with C3H/10T½ cells [1] was “Toxic”. Further, the “lowest concentration” value in the series on C3H/10T½ cells [1] (setting [5]) worked out at 100 µM.

Regarding Myelin Basic Protein, in the series with C3H/10T½ cells [2], the “Protein + 10 μg/mL Soy LPA, percent cells saved from apoptosis” value is 17.0% and the “enhancement of the anti-apoptotic activity of LPA” value was “did not enhance”. Turning to “Phosphatidylserine [Phosphatidylserine (PS), reference compound]”, in the series on C3H/10T½ cells [1] (PS alone (FIG. 2)), the “toxicity to serum-deprived cells” value is recorded as “slightly toxic”.

B1: Ovalbumin: source chicken egg (protein, UniProt P01012 2-386, looked up)
Ovalbumin: GSIGAASMEFCFDVFKELKVHHANENIFYCPIAIMSALAMVYLGAKDSTRTQINKVVRFDKLPGFGDSIEAQCGTSVNVHSSLRDILNQITKPNDVYSFSLASRLYAEERYPILPEYLQCVKELYRGGLEPINFQTAADQARELINSWVESQTNGIIRNVLQPSSVDSQTAMVLVNAIVFKGLWEKAFKDEDTQAMPFRVTEQESKPVQMMYQIGLFRVASMASEKMKILELPFASGTMSMLVLLPDEVSGLEQLESIINFEKLTEWTSSNVMEERKIKVYLPRMKMEEKYNLTSVLMAMGITDVFSSSANLSGISSAESLKISQAVHAAHAEINEAGREVVGSAEAGVDAASVSEEFRADHPFLFCIKHIATNAVLFFGRCVSP
With B1, in the series on C3H/10T½ cells [2], the “Protein + 10 μg/mL Soy LPA, percent cells saved from apoptosis” value is 15.1% and the “enhancement of the anti-apoptotic activity of LPA” value is on record as “did not enhance”. Besides, in series [3], the “Detectable Acrylamide Gel ^3H LPA Binding (+/−)” value was “detectable band”.

B2: Myoglobin: source horse heart (protein, UniProt P68082 2-154, looked up)
Myoglobin: GLSDGEWQQVLNVWGKVEADIAGHGQEVLIRLFTGHPETLEKFDKFKHLKTEAEMKASEDLKKHGTVVLTALGGILKKKGHHEAELKPLAQSHATKHKIPIKYLEFISDAIIHVLHSKHPGDFGADAQGAMTKALELFRNDIAAKYKELGFQG
B2: the “Protein + 10 μg/mL Soy LPA, percent cells saved from apoptosis” value in the series with C3H/10T½ cells [2] is recorded as 27.8%.

The values are drawn from patent US6949529B2, “Compositions containing lysophosphotidic acids which inhibit apoptosis and uses thereof” (Sky High, LLC, priority 1997, dated 2005).
